{"source": "patent US12076307B2", "about": "“Compositions for prevention or treatment of acute radiation syndrome and other radiation exposure” (priority 2017, dated 2024)", "key": {"[1]": {"system": "Balb/c mice, γ-Radiation TBI", "test": "Survival after total body irradiation 6.5-10 Gy (Example 4)", "assay_type": "in vivo, mouse", "settings": "250 mg/kg/day PO", "text": "In order to evaluate effects of PLAG on survival rates of animal models exposed to radiation, the following test groups were constructed as shown in Table 3 and results are shown in FIG. 7B, and FIG. 8-12. As discussed in Examples above, the first group of untreated group (negative control) of ARS-induced mice after radiation was compared to the second group of treated group of ARS-induced mice with PLAG after radiation."}, "EGFR": {"system": "EGFR", "test": "Western blot of EGFR activity, comparison to G-CSF", "assay_type": "cell-based", "settings": "cells stimulated with neutrophil or G-CSF-activated neutrophils", "description": "The effects of EC-18 in comparison to G-CSF to cells after γ-radiation were measured by western blot (FIG. 25). The experiment can i) show correlation between EGFR activity and the abnormal growth and metastasis induction of breast cancer cells in the TAN environment and ii) confirm inhibitory effect mechanism by PLAG treatment in this condition. In fact, it was confirmed that EGFR activity was increased in the groups stimulated with neutrophil or G-CSF-activated neutrophils, however, the activity of EGFR (Phosphorylation of EGFR) was decreased in the group treated with PLAG. FIG. 26 can show effects of PLAG in comparison to G-CSF."}, "[2]": {"system": "HaCaT (human keratinocyte) cells", "test": "Radiation-induced DAMP (HMGB1) release from HaCaT cells", "assay_type": "cell-based", "settings": "γ-irradiated HaCaT cells", "description": "The radiation-induced DAMP removal was evaluated in HaCaT (human keratinocyte) cells exposed with γ-radiation from a ^60Co radiation source (0.833 Gy/minute). As one type of DAMPs, high-mobility group box 1 (HMGB1) was used as a biomarker to establish the mitigating effect of EC-18 against radiation. HMGB1 proportionally secreted as the radiation dosage (5 to 10 Gy) and exposure time (24 to 48 hrs) increased (FIG. 33A)."}, "[3]": {"system": "Balb/c mice, gamma-ray 6.11 Gy", "test": "DAMP (HMGB1, S100A9) in blood of irradiated mice", "assay_type": "in vivo, mouse", "settings": "50 and 250 mg/kg oral 3 days from day 1", "description": "To confirm the proposed mechanism of EC-18 in the in vivo model, female Balb/c mice were irradiated with a gamma-ray of 6.11 Gy on day 0. Then, EC-18 (50 and 250 mg/kg) or PBS was orally administered for 3 consecutive days from day 1 and the mice were sacrificed on the third day. […] While, from the EC-18-treated group, the amount of DAMP reduced compared to the control group, supporting the proposed mechanism of EC-18. Establishment of a Balb/C Mouse Model for ARS"}, "gemcitabine-treated mice": {"system": "gemcitabine-treated mice", "test": "Gemcitabine-induced neutropenia, PLAG with pegfilgrastim", "assay_type": "in vivo, mouse", "description": "In this work, neutrophil counts were compared in four groups of mice: control mice, gemcitabine-treated mice, gemcitabine/pegfilgrastim-treated mice, and gemcitabine/pegfilgrastim/PLAG-treated mice. Gemcitabine was administered intraperitoneally to induce neutropenia. On Day 0, pegfilgrastim was administered subcutaneously. PLAG (50 mg/kg) was orally administered every day during the treatment course. Blood was taken from the orbital sinuses on Days 0, 3, and 5, and neutrophils were counted. […] Pegfilgrastin is polyethylene glycol (PEG)-conjugated granulocyte colony-stimulating factor (PEGylated-G-CSF, pegfilgrastim)."}, "[4]": {"system": "mice, 5-FU + X-radiation 20 Gy on heads and necks", "test": "CRIOM (chemoradiation-induced oral mucositis) murine model", "assay_type": "in vivo, mouse", "text": "Radiation-Induced Coagulopathy is worsened in more severe syndromes including mucositis in the oral cavity and GI. As described above, exposure to radiation stimulates DAMP release and DAMP recognized by PRR results in an inflammatory response that causes apoptosis, mucosal atrophy, and ulceration. Specifically, TLR-4 has been identified as a major PRR, which plays a critical role in the pathogenesis of mucosal injury (Vasconcelos et al., 2016). To investigate the mitigating effect of EC-18 against CRIOM, different doses of EC-18 were administered to mice daily. CRIOM mouse model was established using concurrent treatments with 5-FU (100 mg/kg, i.p.) and X-radiation (20 Gy) on heads and necks of mice. PBS or EC-18 (100 and 250 mg/kg, p.o.) was administered daily (n=5 for each group). The body weights of mice were observed, and the mice were sacrificed on day 9."}, "OATP1B3": {"target": "T1, OATP1B3 (Homo sapiens, UniProt Q9NPD5)", "T1 construct": "expressed in transfected cells; host or cells: HEK-293", "T1 sequence (Q9NPD5 whole entry, species assumed)": "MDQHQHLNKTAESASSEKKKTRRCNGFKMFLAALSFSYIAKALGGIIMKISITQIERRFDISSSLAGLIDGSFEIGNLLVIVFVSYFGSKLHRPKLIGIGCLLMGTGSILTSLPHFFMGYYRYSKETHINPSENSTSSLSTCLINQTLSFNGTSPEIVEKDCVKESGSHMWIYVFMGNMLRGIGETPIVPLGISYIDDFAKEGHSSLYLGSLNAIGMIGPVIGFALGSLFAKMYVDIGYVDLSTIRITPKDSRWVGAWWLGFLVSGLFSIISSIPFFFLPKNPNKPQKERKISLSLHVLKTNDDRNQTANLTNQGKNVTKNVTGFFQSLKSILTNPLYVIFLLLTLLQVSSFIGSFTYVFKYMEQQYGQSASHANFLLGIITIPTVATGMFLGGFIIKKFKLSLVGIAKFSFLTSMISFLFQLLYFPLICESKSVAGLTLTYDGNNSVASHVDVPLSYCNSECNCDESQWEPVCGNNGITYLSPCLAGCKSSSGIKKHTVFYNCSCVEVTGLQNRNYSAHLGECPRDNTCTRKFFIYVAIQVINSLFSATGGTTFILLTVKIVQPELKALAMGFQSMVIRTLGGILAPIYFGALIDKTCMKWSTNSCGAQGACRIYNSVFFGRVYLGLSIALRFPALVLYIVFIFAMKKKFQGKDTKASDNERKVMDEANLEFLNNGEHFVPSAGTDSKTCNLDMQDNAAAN", "test": "Drug transporter inhibition, OATP1B3", "assay_type": "in vitro ADME", "settings": "100 nM [3H] estradiol-17β-D-glucuronide; transfected HEK-293 cells", "description": "(§1) This study examined the potential of EC-18 to interact with the transporter proteins that have been known to be involved in the absorption of commercially available drugs. EC-18 was pre-incubated with HEK-293 cells and LLC-PK1 cells that were transfected with the genes of most drug transporters as follows: OATP1B1, OATP1B3, OAT1, OAT3 and OCT2, and BCRP and P-gp, respectively."}, "P-gp": {"target": "T2, P-gp (Homo sapiens, UniProt P08183)", "T2 construct": "expressed in transfected cells; host or cells: LLC-PK1", "T2 sequence (P08183 whole entry)": "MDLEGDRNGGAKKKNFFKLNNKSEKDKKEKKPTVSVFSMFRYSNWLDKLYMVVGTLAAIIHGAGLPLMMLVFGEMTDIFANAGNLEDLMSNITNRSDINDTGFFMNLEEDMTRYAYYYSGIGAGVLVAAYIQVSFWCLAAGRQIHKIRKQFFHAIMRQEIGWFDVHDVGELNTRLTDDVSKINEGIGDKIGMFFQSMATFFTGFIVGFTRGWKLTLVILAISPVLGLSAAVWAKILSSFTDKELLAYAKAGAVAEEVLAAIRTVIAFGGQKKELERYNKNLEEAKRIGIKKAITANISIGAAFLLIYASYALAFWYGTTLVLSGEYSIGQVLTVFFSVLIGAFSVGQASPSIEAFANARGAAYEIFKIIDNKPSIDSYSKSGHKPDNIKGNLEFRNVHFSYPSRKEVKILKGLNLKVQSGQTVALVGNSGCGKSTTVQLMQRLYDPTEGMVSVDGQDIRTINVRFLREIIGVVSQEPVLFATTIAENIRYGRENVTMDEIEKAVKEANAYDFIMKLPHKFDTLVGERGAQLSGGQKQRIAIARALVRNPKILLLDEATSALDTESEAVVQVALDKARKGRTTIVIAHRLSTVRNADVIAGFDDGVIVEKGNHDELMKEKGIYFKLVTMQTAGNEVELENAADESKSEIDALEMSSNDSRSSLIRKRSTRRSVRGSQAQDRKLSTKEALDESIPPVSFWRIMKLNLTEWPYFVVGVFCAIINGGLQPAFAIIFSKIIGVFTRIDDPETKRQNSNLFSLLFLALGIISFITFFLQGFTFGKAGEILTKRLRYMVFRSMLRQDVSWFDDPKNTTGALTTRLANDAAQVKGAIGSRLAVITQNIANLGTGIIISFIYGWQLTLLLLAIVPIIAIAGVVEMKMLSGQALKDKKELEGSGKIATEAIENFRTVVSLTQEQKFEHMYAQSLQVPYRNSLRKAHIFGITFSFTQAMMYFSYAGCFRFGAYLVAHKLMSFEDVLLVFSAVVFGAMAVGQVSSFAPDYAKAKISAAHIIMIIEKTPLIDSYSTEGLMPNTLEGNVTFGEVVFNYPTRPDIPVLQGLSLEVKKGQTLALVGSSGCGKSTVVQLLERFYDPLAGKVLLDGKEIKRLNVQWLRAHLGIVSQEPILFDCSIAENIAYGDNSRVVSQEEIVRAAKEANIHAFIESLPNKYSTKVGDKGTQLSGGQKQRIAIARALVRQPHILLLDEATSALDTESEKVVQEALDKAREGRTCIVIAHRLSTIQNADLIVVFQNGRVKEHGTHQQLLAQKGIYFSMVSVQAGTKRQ", "test": "Drug transporter inhibition, P-gp", "assay_type": "in vitro ADME", "settings": "[3H]digoxin; transfected LLC-PK1 cells", "description": "as §1"}, "Beagle dog": {"system": "Beagle dog", "test": "Single-dose toxicity, Beagle dog", "assay_type": "in vivo", "settings": "Oral, Days 1, 5, 9, 13", "text": "(§2) Various toxicology studies have been performed. All studies were GLP-compliant unless otherwise noted."}, "[5]": {"test": "Embryo-fetal developmental toxicity study, SD rat", "assay_type": "in vivo", "settings": "SD, rat, in vivo; definitive study; Oral 11 days", "text": "as §2"}, "SD rat": {"system": "SD rat", "test": "Embryo-fetal developmental toxicity study, SD rat", "assay_type": "in vivo", "settings": "for mortality: 0, 500, 1000, 2000 mg/kg", "text": "as §2"}, "[6]": {"test": "Whole blood and lymphatic radioactivity in rats after single oral [14C]EC-18 100 mg/kg", "assay_type": "in vivo, rat"}}}
{"smiles": "CCCCC/C=C\\C/C=C\\CCCCCCCC(=O)OC(COC(C)=O)COC(=O)CCCCCCCCCCCCCCC", "note": "(stereo not shown) [EC-18, 1-palmitoyl-2-linoleoyl-3-acetylglycerol]", "values": [{"measurement": "survival rate vs untreated mice", "setting": "[1]; 6.5 Gy TBI, BALB/c 9 weeks old", "result": "improved"}, {"measurement": "survival rate vs untreated mice", "setting": "[1]; 6.5 Gy TBI, BALB/c 11 weeks old", "result": "improved"}, {"measurement": "survival rate vs untreated mice", "setting": "[1]; 7 Gy TBI, 9 weeks old", "result": "improved until about day 15"}, {"measurement": "survival rate vs untreated mice", "setting": "[1]; 8 Gy TBI, 9 weeks old", "result": "improved until about day 14"}, {"measurement": "survival rate vs untreated mice", "setting": "[1]; 10 Gy TBI, 9 weeks old", "result": "improved until about day 9"}, {"measurement": "activity of EGFR (Phosphorylation of EGFR)", "setting": "EGFR", "result": "decreased"}, {"measurement": "HMGB1 release", "setting": "[2]", "result": "less HMGB1 released in a dose-dependent manner"}, {"measurement": "amount of DAMP (HMGB1, S100A9) in blood vs control group", "setting": "[3]", "result": "reduced"}, {"measurement": "blood cell apoptosis and neutrophil release from bone marrow", "setting": "gemcitabine-treated mice; PLAG 50 mg/kg", "result": "did not affect"}, {"measurement": "pegfilgrastim-induced CXCR2 expression in neutrophils", "setting": "gemcitabine-treated mice; PLAG 50 mg/kg", "result": "markedly decreased"}, {"measurement": "neutrophil counts", "setting": "gemcitabine-treated mice; gemcitabine/pegfilgrastim/PLAG 50 mg/kg oral daily, third day following pegfilgrastim", "result": "dramatically increased"}, {"measurement": "thickness of the oral epithelium", "setting": "[4]; ChemoRT + EC-18", "result": "protective effect"}, {"measurement": "DAMPs (HMGB1, HSP90) in serum", "setting": "[4]; ChemoRT + EC-18 250 mg/kg", "result": "subsided levels of DAMPs"}, {"measurement": "MIP-2 and IL-6 in serum", "setting": "[4]; ChemoRT + EC-18 250 mg/kg", "result": "substantially less systemic inflammation"}, {"measurement": "expression level of CXCL2 and IL-6 mRNA in tongues", "setting": "[4]; ChemoRT + EC-18 250 mg/kg", "result": "downregulated"}, {"measurement": "necroptotic signaling axis (RIPK1, RIPK3, MLKL phosphorylation) in tongues", "setting": "[4]; ChemoRT + EC-18 250 mg/kg", "result": "significantly modulated"}, {"measurement": "neutrophils recruited at oral epithelium (IHC)", "setting": "[4]; ChemoRT + EC-18 250 mg/kg", "result": "did not"}, {"measurement": "OM score and rates of ulceration", "setting": "[4]; ChemoRT + EC-18 100 and 250 mg/kg", "result": "statistically improvement of OM score and lower rates of ulceration dose-dependently"}, {"measurement": "body weight", "setting": "[4]; ChemoRT + EC-18 100 and 250 mg/kg p.o. daily", "result": "did not exhibit a significant weight loss"}, {"measurement": "IC50", "setting": "OATP1B3", "result": "> 32", "unit": "µM"}, {"measurement": "IC50", "setting": "P-gp", "result": "> 32", "unit": "µM"}, {"measurement": "Approximate lethal dose", "setting": "Beagle dog", "result": "dose: >2000 mg/kg"}, {"measurement": "mortality", "setting": "Beagle dog; 0, 500, 1000, 1500, 2000 mg/kg", "result": "No dead animals"}, {"measurement": "findings", "setting": "Beagle dog; up to 2000 mg/kg", "result": "No specific findings"}, {"measurement": "NOAEL at 11 days", "setting": "[5]", "result": 2000, "unit": "mg/kg/day"}, {"measurement": "significant differences in implantation rate, male-to-female ratio of fetuses, fetal mortality rate vs control", "setting": "SD rat; DRF study, Oral 11 days", "result": "There were no"}, {"measurement": "mortality", "setting": "SD rat; DRF study, Oral 11 days (day-7 to day-17 of pregnancy)", "result": "No dead animals"}, {"measurement": "findings", "setting": "SD rat; definitive study, Oral 11 days", "result": "No specific findings"}, {"measurement": "mortality", "setting": "SD rat; definitive study, Oral 11 days", "result": "No dead animals"}, {"measurement": "Cmax of radioactivity at 24 hrs (so in the source)", "setting": "[6]; lymphatic fluid", "result": 48, "unit": "%"}, {"measurement": "Cmax of radioactivity at 24 hrs (so in the source)", "setting": "[6]; whole blood", "result": 34, "unit": "%"}]}
